Read-outs that look alike come from different tables or passages of the source.
What was measured:
Type in all cases: biochemical
SARS-CoV-2 3CL^pro = SARS-CoV-2 3CL^pro (Severe acute respiratory syndrome coronavirus 2, UniProt P0DTD1)
human cathepsin L = human cathepsin L (Homo sapiens, UniProt P07711); test: fluorogenic peptide cleavage assay
human cathepsin B = human cathepsin B (Homo sapiens, UniProt P07858); test: fluorogenic peptide cleavage assay

Chain of human cathepsin L (P07711 114-333 limits assumed): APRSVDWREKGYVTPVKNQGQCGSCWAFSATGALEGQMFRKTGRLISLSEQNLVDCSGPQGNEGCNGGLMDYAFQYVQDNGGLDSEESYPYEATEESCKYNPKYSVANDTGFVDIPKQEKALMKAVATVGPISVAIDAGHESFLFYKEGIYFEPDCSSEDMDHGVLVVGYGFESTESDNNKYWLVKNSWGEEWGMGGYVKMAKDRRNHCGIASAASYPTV

N-((S)-1-(2-Acetyl-2-(((S)-2-oxopyrrolidin-3-yl)methyl)hydrazineyl)-4-methyl-1-oxopentan-2-yl)-4-fluoro-1H-indole-2-carboxamide [compound 12]
IC50 (SARS-CoV-2 3CL^pro; […], no CFA warhead, 30 min preincubation, pH 7.3, 1 mM DTT, ambient temperature): 178 nM

COc1cccc2[nH]c(C(=O)N[C@@H](CC(C)C)C(=O)NN(C[C@H]3CCNC3=O)C(=O)[C@H](F)Cl)cc12 [10b, N-((S)-1-(2-((R)-2-Chloro-2-fluoroacetyl)-2-(((R)-2-oxopyrrolidin-3-yl)methyl)hydrazineyl)-4-methyl-1-oxopentan-2-yl)-4-methoxy-1H-indole-2-carboxamide]
IC50 (SARS-CoV-2 3CL^pro): 15.6 nM

CC(C)C[C@H](NC(=O)c1cc2c(F)cccc2[nH]1)C(=O)NN(C[C@@H]1CCNC1=O)C(=O)[C@H](F)Cl [8a, N-((S)-1-(2-((R)-2-Chloro-2-fluoroacetyl)-2-(((S)-2-oxopyrrolidin-3-yl)methyl)hydrazineyl)-4-methyl-1-oxopentan-2-yl)-4-fluoro-1H-indole-2-carboxamide]
IC50 (human cathepsin L): > 10000 nM
IC50 (human cathepsin B): > 10000 nM
